Biological target: T1, Type II NADH dehydrogenase (Plasmodium falciparum, UniProt Q8I302)
T1 sequence (Q8I302 24-533): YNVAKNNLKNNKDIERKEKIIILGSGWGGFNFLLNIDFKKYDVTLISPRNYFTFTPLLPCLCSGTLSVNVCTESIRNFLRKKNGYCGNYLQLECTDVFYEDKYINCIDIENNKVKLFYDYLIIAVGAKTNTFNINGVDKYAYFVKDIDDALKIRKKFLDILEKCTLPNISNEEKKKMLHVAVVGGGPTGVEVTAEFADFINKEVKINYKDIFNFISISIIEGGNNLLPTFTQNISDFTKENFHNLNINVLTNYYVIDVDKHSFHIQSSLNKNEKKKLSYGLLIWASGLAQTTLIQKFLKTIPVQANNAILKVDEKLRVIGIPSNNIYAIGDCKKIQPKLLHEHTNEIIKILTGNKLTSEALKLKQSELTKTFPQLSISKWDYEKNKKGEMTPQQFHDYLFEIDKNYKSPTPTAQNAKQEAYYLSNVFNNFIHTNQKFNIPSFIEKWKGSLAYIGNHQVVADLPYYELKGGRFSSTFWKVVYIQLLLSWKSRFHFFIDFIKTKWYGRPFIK
Assay: NADH oxidation at […] nm, parasite cell-free extract
Assay type: biochemical
Conditions: concentration not given

SMILES | NADH oxidation at 340 nm, parasite cell-free extract (inhibitor of MQ-4-dependent NADH oxidation) | NADH oxidation at 340 nm, parasite cell-free extract (electron acceptor with NADH)
c1ccc2c(c1)[I+]c1ccccc1-2 [DPI, diphenylene iodonium chloride] | sensitive to diphenylene iodonium chloride (DPI), a classical Type II NADH:dehydrogenase inhibitor | –
CCCCCCCCCCC1=C(C)C(=O)C(OC)=C(OC)C1=O [decylubiquinone] | – | Without MQ-4 or decylubiquinone addition no NADH oxidation was observed

From paper PMC4784480 (FEBS letters, 2010)
